Measured values taken from patent US8680012B2, “4-phenyl-pyrane-3,5-diones,4-phenyl-thiopyrane-3,6-diones and cyclohexanetriones as novel herbicides” (Syngenta Crop Protection LLC, priority 2006, dated 2014).

test system: Alopecurus myosuroides (ALOMY); assay: Example B pre-emergence herbicidal activity, glasshouse pot test; format: in vivo; details: 312 h, rate 1000 g/ha, evaluated after 13 days, read-out: Pre-emergence activity ALOMY (100=total damage to plant; 0=no damage to plant)
In short: (§1)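 One day (pre) or eight days (post) after sowing, pots received a spray of test compound formulated in acetone/water 50:50 with 0.5% Tween 20; plants were then kept under controlled glasshouse conditions with watering twice daily and assessed for damage (0–100) at 13 days.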

Row | Compound | pest or weed control at 1000 g/ha [%]
1 | Cc1ccc(-c2ccc(Cl)cc2)cc1C1=C(O)C2(CCOCC2)OCC1=O (single isomer, unassigned) [Compound A-37] | 40
2 | Cc1ccc(-c2cccc(C(F)(F)F)c2)cc1C1=C(O)C(C)(C)OC(C)(C)C1=O [Compound A-15] | 50
3 | Cc1ccc(-c2ccc(Oc3ccccc3)cc2)cc1C1=C(O)C(C)(C)OC(C)(C)C1=O [Compound A-16] | 30
4 | Cc1ccc(-c2ccc(C#N)cc2)cc1C1=C(O)C(C)(C)OC(C)(C)C1=O [Compound A-20] | 90

test system: Amaranthus retroflexus (AMARE); assay: as above; format: in vivo; details: 312 h, rate 1000 g/ha, evaluated after 13 days, read-out: Pre-emergence activity AMARE (100=total damage to plant; 0=no damage to plant)
In short: as §1

Row | Compound | pest or weed control at 1000 g/ha [%]
5 | Cc1ccc(-c2ccc(Cl)cc2)cc1C1=C(O)C2(CCOCC2)OCC1=O (single isomer, unassigned) [Compound A-37] | 0
6 | Cc1ccc(-c2cccc(C(F)(F)F)c2)cc1C1=C(O)C(C)(C)OC(C)(C)C1=O [Compound A-15] | 100
7 | Cc1ccc(-c2ccc(Oc3ccccc3)cc2)cc1C1=C(O)C(C)(C)OC(C)(C)C1=O [Compound A-16] | 0
8 | Cc1ccc(-c2ccc(C#N)cc2)cc1C1=C(O)C(C)(C)OC(C)(C)C1=O [Compound A-20] | 0

test system: Avena fatua (AVEFA); assay: as above; format: in vivo; details: 312 h, rate 1000 g/ha, evaluated after 13 days, read-out: Pre-emergence activity AVEFA (100=total damage to plant; 0=no damage to plant)
In short: as §1

Row | Compound | pest or weed control at 1000 g/ha [%]
9 | Cc1ccc(-c2ccc(Cl)cc2)cc1C1=C(O)C2(CCOCC2)OCC1=O (single isomer, unassigned) [Compound A-37] | 20
10 | Cc1ccc(-c2cccc(C(F)(F)F)c2)cc1C1=C(O)C(C)(C)OC(C)(C)C1=O [Compound A-15] | 50
11 | Cc1ccc(-c2ccc(Oc3ccccc3)cc2)cc1C1=C(O)C(C)(C)OC(C)(C)C1=O [Compound A-16] | 20
12 | Cc1ccc(-c2ccc(C#N)cc2)cc1C1=C(O)C(C)(C)OC(C)(C)C1=O [Compound A-20] | 60

test system: Echinochloa crus-galli (ECHCG); assay: as above; format: in vivo; details: 312 h, rate 1000 g/ha, evaluated after 13 days, read-out: Pre-emergence activity ECHCG (100=total damage to plant; 0=no damage to plant)
In short: as §1

Row | Compound | pest or weed control at 1000 g/ha [%]
13 | Cc1ccc(-c2ccc(Cl)cc2)cc1C1=C(O)C2(CCOCC2)OCC1=O (single isomer, unassigned) [Compound A-37] | 30
14 | Cc1ccc(-c2cccc(C(F)(F)F)c2)cc1C1=C(O)C(C)(C)OC(C)(C)C1=O [Compound A-15] | 100
15 | Cc1ccc(-c2ccc(Oc3ccccc3)cc2)cc1C1=C(O)C(C)(C)OC(C)(C)C1=O [Compound A-16] | 100
16 | Cc1ccc(-c2ccc(C#N)cc2)cc1C1=C(O)C(C)(C)OC(C)(C)C1=O [Compound A-20] | 100

test system: Setaria faberi (SETFA); assay: as above; format: in vivo; details: 312 h, rate 1000 g/ha, evaluated after 13 days, read-out: Pre-emergence activity SETFA (100=total damage to plant; 0=no damage to plant)
In short: as §1

Row | Compound | pest or weed control at 1000 g/ha [%]
17 | Cc1ccc(-c2ccc(Cl)cc2)cc1C1=C(O)C2(CCOCC2)OCC1=O (single isomer, unassigned) [Compound A-37] | 20
18 | Cc1ccc(-c2cccc(C(F)(F)F)c2)cc1C1=C(O)C(C)(C)OC(C)(C)C1=O [Compound A-15] | 50
19 | Cc1ccc(-c2ccc(Oc3ccccc3)cc2)cc1C1=C(O)C(C)(C)OC(C)(C)C1=O [Compound A-16] | 100
20 | Cc1ccc(-c2ccc(C#N)cc2)cc1C1=C(O)C(C)(C)OC(C)(C)C1=O [Compound A-20] | 100

test system: Solanum nigrum (SOLNI); assay: as above; format: in vivo; details: 312 h, rate 1000 g/ha, evaluated after 13 days, read-out: Pre-emergence activity SOLNI (100=total damage to plant; 0=no damage to plant)
In short: as §1

Row | Compound | pest or weed control at 1000 g/ha [%]
21 | Cc1ccc(-c2ccc(Cl)cc2)cc1C1=C(O)C2(CCOCC2)OCC1=O (single isomer, unassigned) [Compound A-37] | 0
22 | Cc1ccc(-c2cccc(C(F)(F)F)c2)cc1C1=C(O)C(C)(C)OC(C)(C)C1=O [Compound A-15] | 100
23 | Cc1ccc(-c2ccc(Oc3ccccc3)cc2)cc1C1=C(O)C(C)(C)OC(C)(C)C1=O [Compound A-16] | 0
24 | Cc1ccc(-c2ccc(C#N)cc2)cc1C1=C(O)C(C)(C)OC(C)(C)C1=O [Compound A-20] | 40

test system: Alopecurus myosuroides (ALOMY); assay: Example B post-emergence herbicidal activity, glasshouse pot test; format: in vivo; details: 312 h, rate 1000 g/ha, evaluated after 13 days, read-out: Post-emergence activity ALOMY (100=total damage to plant; 0=no damage to plant)
In short: as §1

Row | Compound | pest or weed control at 1000 g/ha [%]
25 | Cc1ccc(-c2ccc(Cl)cc2)cc1C1=C(O)C2(CCOCC2)OCC1=O (single isomer, unassigned) [Compound A-37] | 70
26 | Cc1ccc(-c2cccc(C(F)(F)F)c2)cc1C1=C(O)C(C)(C)OC(C)(C)C1=O [Compound A-15] | 10
27 | Cc1ccc(-c2ccc(Oc3ccccc3)cc2)cc1C1=C(O)C(C)(C)OC(C)(C)C1=O [Compound A-16] | 30
28 | Cc1ccc(-c2ccc(C#N)cc2)cc1C1=C(O)C(C)(C)OC(C)(C)C1=O [Compound A-20] | 90

test system: Amaranthus retroflexus (AMARE); assay: as above; format: in vivo; details: 312 h, rate 1000 g/ha, evaluated after 13 days, read-out: Post-emergence activity AMARE (100=total damage to plant; 0=no damage to plant)
In short: as §1

Row | Compound | pest or weed control at 1000 g/ha [%]
29 | Cc1ccc(-c2ccc(Cl)cc2)cc1C1=C(O)C2(CCOCC2)OCC1=O (single isomer, unassigned) [Compound A-37] | 0
30 | Cc1ccc(-c2cccc(C(F)(F)F)c2)cc1C1=C(O)C(C)(C)OC(C)(C)C1=O [Compound A-15] | 90
31 | Cc1ccc(-c2ccc(Oc3ccccc3)cc2)cc1C1=C(O)C(C)(C)OC(C)(C)C1=O [Compound A-16] | 40
32 | Cc1ccc(-c2ccc(C#N)cc2)cc1C1=C(O)C(C)(C)OC(C)(C)C1=O [Compound A-20] | 20

test system: Avena fatua (AVEFA); assay: as above; format: in vivo; details: 312 h, rate 1000 g/ha, evaluated after 13 days, read-out: Post-emergence activity AVEFA (100=total damage to plant; 0=no damage to plant)
In short: as §1

Row | Compound | pest or weed control at 1000 g/ha [%]
33 | Cc1ccc(-c2ccc(Cl)cc2)cc1C1=C(O)C2(CCOCC2)OCC1=O (single isomer, unassigned) [Compound A-37] | 30
34 | Cc1ccc(-c2cccc(C(F)(F)F)c2)cc1C1=C(O)C(C)(C)OC(C)(C)C1=O [Compound A-15] | 20
35 | Cc1ccc(-c2ccc(Oc3ccccc3)cc2)cc1C1=C(O)C(C)(C)OC(C)(C)C1=O [Compound A-16] | 30
36 | Cc1ccc(-c2ccc(C#N)cc2)cc1C1=C(O)C(C)(C)OC(C)(C)C1=O [Compound A-20] | 90

test system: Echinochloa crus-galli (ECHCG); assay: as above; format: in vivo; details: 312 h, rate 1000 g/ha, evaluated after 13 days, read-out: Post-emergence activity ECHCG (100=total damage to plant; 0=no damage to plant)
In short: as §1

Row | Compound | pest or weed control at 1000 g/ha [%]
37 | Cc1ccc(-c2ccc(Cl)cc2)cc1C1=C(O)C2(CCOCC2)OCC1=O (single isomer, unassigned) [Compound A-37] | 90
38 | Cc1ccc(-c2cccc(C(F)(F)F)c2)cc1C1=C(O)C(C)(C)OC(C)(C)C1=O [Compound A-15] | 50
39 | Cc1ccc(-c2ccc(Oc3ccccc3)cc2)cc1C1=C(O)C(C)(C)OC(C)(C)C1=O [Compound A-16] | 100
40 | Cc1ccc(-c2ccc(C#N)cc2)cc1C1=C(O)C(C)(C)OC(C)(C)C1=O [Compound A-20] | 100

test system: Setaria faberi (SETFA); assay: as above; format: in vivo; details: 312 h, rate 1000 g/ha, evaluated after 13 days, read-out: Post-emergence activity SETFA (100=total damage to plant; 0=no damage to plant)
In short: as §1

Row | Compound | pest or weed control at 1000 g/ha [%]
41 | Cc1ccc(-c2ccc(Cl)cc2)cc1C1=C(O)C2(CCOCC2)OCC1=O (single isomer, unassigned) [Compound A-37] | 80
42 | Cc1ccc(-c2cccc(C(F)(F)F)c2)cc1C1=C(O)C(C)(C)OC(C)(C)C1=O [Compound A-15] | 10
43 | Cc1ccc(-c2ccc(Oc3ccccc3)cc2)cc1C1=C(O)C(C)(C)OC(C)(C)C1=O [Compound A-16] | 100
44 | Cc1ccc(-c2ccc(C#N)cc2)cc1C1=C(O)C(C)(C)OC(C)(C)C1=O [Compound A-20] | 100

test system: Solanum nigrum (SOLNI); assay: as above; format: in vivo; details: 312 h, rate 1000 g/ha, evaluated after 13 days, read-out: Post-emergence activity SOLNI (100=total damage to plant; 0=no damage to plant)
In short: as §1

Row | Compound | pest or weed control at 1000 g/ha [%]
45 | Cc1ccc(-c2ccc(Cl)cc2)cc1C1=C(O)C2(CCOCC2)OCC1=O (single isomer, unassigned) [Compound A-37] | 70
46 | Cc1ccc(-c2cccc(C(F)(F)F)c2)cc1C1=C(O)C(C)(C)OC(C)(C)C1=O [Compound A-15] | 10
47 | Cc1ccc(-c2ccc(Oc3ccccc3)cc2)cc1C1=C(O)C(C)(C)OC(C)(C)C1=O [Compound A-16] | 10
48 | Cc1ccc(-c2ccc(C#N)cc2)cc1C1=C(O)C(C)(C)OC(C)(C)C1=O [Compound A-20] | 80
